Data set [1] can be described thus: Solubility in water of the product. The following applies: powder.
For data set [2], the system named is mice. The data set is described as follows: Determination of the Anesthetic ED50 and the LD50 of Pentothal. Format: in vivo, female Swiss-Webster mice. As for the experimental part: (§1) An intravenous potency/lethality ratio for Pentothal was established in mice as follows
(§2) Determination of the Anesthetic ED50 and the LD50 of Pentothal
(§3) Groups of 10 female Swiss-Webster (A. R. Schmidt, Madison, Wisconsin) mice weighing between 16-25 grams were used for all studies. Intravenous injections were made into the tail veins. The drugs were prepared daily in Sterile Water (Abbott List No. 1590). […] LD50 's ED50 's, and their associated conficence limits were calculated by the method of Litchfield and Wilcoxon (1949).

Test in data set [3]: as above
The data set is classed as in vivo, female Swiss-Webster mice. The note with it: mouse, in vivo; intravenous, mice, observed one week; read-out: LD50 (95% C.L.). As to the method: as §1, §2, §3

In data set [4] the test system is mice. The data set is described as follows: Activity of benzopyrans as adjuvants to halothane anesthesia (Carson-Domino method). The data set is classed as in vivo. On the set-up: key: +: statistically significant increase; -: statistically significant decrease; NE: no effect; (): large but non-statistically significant change. The source says:
(§4) A modification of the method of Carson and Domino (Anesthesiology, 23:187-192, 1962) was used.
(§5) Groups of 10 female Swiss-Webster (A. R. Schmidt, Madison, Wisconsin) mice weighing between 16-24 grams were pre-treated with various doses or at various times with drug either oral or by intravenous injection of the tail veins. The mice were placed into 2 liter beakers (5 animals per beaker). The tops of the beakers were covered with Parafilm to which a gauze sponge had been attached. 0.1 cc of Penthrane or halothrane was injected through the Parafilm into the sponge at 5 minute intervals. […] These parameters were measured by the use of a stop watch. Statistical analysis (one-way analysis of variance) was done on the computer.
A number of benzopyran derivatives were screened in mice as adjuvants to the anesthetic actions of halothane. The Carson-Domino method (Anesthesiology 23:187, 1962) was used to measure anesthetic induction times and duration of anesthesia as evidenced by loss of righting reflex, as well as changes in the lethality of halothane.
Screening doses of 5 mg./kg. intravenously or 20 mg./kg. orally were used.

Data set [5] deals with mice. The data set is described as follows: Interaction of Benzopyranopyridines with Pentothal (loss of righting reflex, sleep). Format: in vivo, female Swiss-Webster mice. As for the experimental part:
as §3
Interaction of Benzopyranopyridines with Pentothal
1. Animals pretreated with SP-106, 1 mg./kg. intravenously 0-30 minutes prior to Pentothal, 10 mg./kg. […] Longer pretreatment times (60 to 120 minutes) had no effect.

For data set [6], the system named is mice. The data set is described as follows: Interaction of Benzopyranopyridines with Fluothane (halothane) (modified Carson and Domino method). The data set is classed as in vivo, female Swiss-Webster mice. The following applies: 1 to 5 mg./kg. 15 minutes prior to halothane vapors.
Excerpt: as §4, §5

Data set [7] relates to mice. The data set is described as follows: Interaction of Benzopyranopyridines with Penthrane (modified Carson and Domino method). The data set is classed as in vivo, female Swiss-Webster mice. The note with it: 1 to 5 mg./kg. 15 minutes prior to Penthrane vapors.
Excerpt: as §4, §5

Setting [8] is: 20 mg/kg p.o., pretreatment time 1 hr.
The mark [9] stands for this setting: 20 mg/kg p.o., pretreatment time 2 hr.
The mark [10] stands for this setting: 20 mg/kg p.o., pretreatment time 3 hr.
The mark [11] stands for this setting: 20 mg/kg p.o., pretreatment time 4 hr.
Where [12] appears, read: 5 mg/kg i.v., pretreatment time 15 minutes.

Where a name gives a salt, the structure may show the parent alone.

Broadly, the ED50 is the dose at which the effect has come halfway, by size or by number of responders. For orientation: LD50 means the dose expected to kill half of the subjects tested.

As to `CC1CCC2=C(C1)c1c(OC(=O)CCCN3CCCCC3)cc(C(C)CCCc3ccc(F)cc3)cc1OC2(C)C` (centres unmarked) [Example 71], the solubility in water result in data set [1] was “soluble in water”.
`CCCC(C)C1(CC)C(=O)NC(=S)NC1=O` (centres unmarked) [Pentothal, sodium thiopental]: the ED50 in the data set with mice [2] (Mus musculus, intravenous, mice, loss of righting reflex, read-out: Anesthetic ED50 (95% C.L.)) was found to be 20 mg/kg. For the same compound, the pH with mice [2] (Remarks: irritating (pH 11)) is given as 11. Moreover, in the data set on mice [2] (intravenous, mice), the “Remarks: duration” value is “short duration”, the “Remarks: irritation” value is given as “irritating”, the “Remarks: onset” value was “Immediate onset” and the “Therapeutic Index” value was ~ 4. Moreover, the LD50 at 168 h in data set [3] was found to be 76 mg/kg.
On to `C#CCN1CCC2=C(C1)c1c(O)cc(C(C)C(C)CCCCC)cc1OC2(C)C` (centres unmarked) [SP-1], for which the Duration result with mice [4] (setting [8]), with mice [4] (setting [9]), in the data set with mice [4] (setting [10]) and in the data set with mice [4] (setting [11]) was “+” each time. The Lethality entry was “-” with mice [4] (setting [8]), “NE” in the data set with mice [4] (setting [9]), “NE” with mice [4] (setting [10]) and “NE” in the data set on mice [4] (setting [11]). Also, the Onset entry with mice [4] (setting [8]) is “+”; with mice [4] (setting [9]), “-”; in the data set on mice [4] (setting [10]), “-”; in the data set on mice [4] (setting [11]), “-”.
For the compound `CCCCCC(C)C(C)c1cc(OC(=O)CCCN2CCCCC2)c2c(c1)OC(C)(C)C1=C2CCC1` (centres unmarked) [SP-102], in the data set on mice [4] (setting [12]), the Duration entry is listed as “+”, the Lethality result was “NE” and the Onset result is “+”.
`C#CCN1CCC2=C(C1)c1c(OC(=O)CCCN3CCCCC3)cc(C(C)C(C)CCCCC)cc1OC2(C)C.Cl` (centres unmarked) [SP-106, 5,5-Dimethyl-8-(3-methyl-2-octyl)-10-[4-(piperidino)butyryloxy]-2-(2-propynyl)-1,2,3,4-tetrahydro-5H-[1]benzopyrano[3,4-d]pyridine hydrochloride]: the peak effect in the data set on mice [5] (1 mg./kg. intravenously 0-30 minutes prior to Pentothal 10 mg./kg.) stood at 5 min. In the data set with mice [5] (1 mg./kg. intravenously 0-30 minutes prior to Pentothal 10 mg./kg. (non-anesthetic dose)), the “anesthesia (loss of righting reflex)” value is given as “produced anesthesia”. For the same compound, in the data set with mice [5] (1 and 5 mg./kg. intravenously 15 minutes prior to anesthetic dose (30 mg./kg.) of Pentothal), the sleep duration entry is “significantly lengthened the sleep”. Further, in the data set on mice [5] (60 to 120 minutes pretreatment, 1 mg./kg. intravenously, Pentothal 10 mg./kg.), the “effect at longer pretreatment times” value is reported as “had no effect”. Also, in the data set with mice [6], the Onset entry is on record as “reduction of onset”, the duration of anesthesia entry was “increased the duration of anesthesia” and the time to death entry is given as “increased”. In the data set on mice [4] (setting [12]), the Duration entry is on record as “+”, the Lethality entry is reported as “-” and the Onset entry is recorded as “-”. In addition, in the data set on mice [7], the duration of anesthesia entry is on record as “significantly lengthened the duration of anesthesia”, the onset to sleep result is reported as “signficantly shortened onset to sleep” and the time to death entry is reported as “had no effect or lengthened time to death”.
Regarding `CCCCCc1cc(OC(=O)CCCN2CCOCC2)c2c(c1)OC(C)(C)C1CCC(C)=CC21` (centres unmarked) [SP-111], in the data set with mice [4] (setting [12]), the Duration entry is given as “+”, the Lethality result is reported as “NE” and the Onset entry is reported as “-”.
For `C#CCN1CCC2=C(C1)c1c(OC(=O)CCCN3CCOCC3)cc(C(C)C(C)CCCCC)cc1OC2(C)C.Cl` (centres unmarked) [SP-112, 5,5-Dimethyl-10-[4-(morpholino)butyryloxy]-8-(3-methyl-2-octyl)-2-(2-propynyl)-1,2,3,4-tetrahydro-5H-[1]-benzopyrano [3,4-d] pyridine hydrochloride], in that order: “+”, “NE” and “-”.
On to `CCCCCC(C)C(C)c1cc(OC(=O)CCCN2CCCCC2)c2c(c1)OC(C)(C)C1=C2CCCS1` (centres unmarked) [SP-117], for which, in the data set on mice [4] (setting [12]), the Lethality result is on record as “NE” and the Onset result is “+”.
`C#CCN1CCC2=C(C1)c1c(OC(=O)CCCN3CCCCC3C)cc(C(C)C(C)CCCCC)cc1OC2(C)C` (centres unmarked) [SP-159, 5,5-Dimethyl-10-[4-(2-methylpiperidino)butyryloxy]-8-(3-methyl-2-octyl)-2-(2-propynyl)-1,2,3,4-tetrahydro-5H-[1]benzopyrano [3,4-d] pyridine hydrochloride]: in the data set on mice [4] (setting [12]), the Duration result is given as “+”, the Lethality result was “NE” and the Onset entry is reported as “-”.
For `C#CCN1CCC2=C(C1)c1c(OC(=O)C(C)CCN3CCCCC3)cc(C(C)C(C)CCCCC)cc1OC2(C)C` (centres unmarked) [SP-178, 5,5-Dimethyl-10-[2-methyl-4-(piperidino)butyryloxy]-8-(3-methyl-2-octyl)-2-(2-propynyl)-1,2,3,4-tetrahydro-5H-[1]benzopyrano[3,4-d] pyridine dihydrochloride], in that order: “+”, “NE” and “-”.
For `C#CCN1CCC2=C(C1)c1c(OC(=O)C(C)CCN3CCCCC3C)cc(C(C)C(C)CCCCC)cc1OC2(C)C` (centres unmarked) [SP-204], in the data set with mice [4] (setting [12]), the Duration entry is listed as “+”, the Lethality result is recorded as “-” and the Onset entry is given as “-”.
As to `C#CCN1CCC2=C(C1)c1c(OC(=O)CCCN3CCCCC3)cc(C(C)CCCc3ccc(F)cc3)cc1OC2(C)C` (centres unmarked) [SPA-109], in the data set on mice [4] (setting [12]), the Duration entry is given as “+”, the Lethality result is “NE” and the Onset result is reported as “-”.

For the origin of these results see patent US4025630A, “Anesthesia methods using benzopyrans and esters thereof as pre-anesthesia medication” (Abbott Laboratories, priority 1974, dated 1977).
